≈ marks a conversion by molar mass, not a printed value. Calls of active or inactive are those of the source. No cut-off for these calls is given here.

Test system in one data set: not listed separately
The data set can be described thus: Solubility of the compound in PBS buffer at pH 7.4 at 37 degC. The format is physicochemical.
Conditions: not given
For the compound `O=c1[nH]c2ccc(O)nc2[nH]1`, the solubility worked out at 82 µg/mL (≈ 543 µM). Same read-out and setting: for `O=c1[nH]c2ccc(O)cc2[nH]1` the value was 65 µg/mL (≈ 433 µM); for `O=c1[nH]c(=O)c2[nH]c(=O)[nH]c2[nH]1` [URIC ACID], 53 µg/mL (≈ 315 µM). With `O=C1Cc2cc(O)ccc2N1`, the solubility was 225 µg/mL (≈ 1510 µM). Compared with the last compound, the solubility is about 4.2-fold higher.

For the next data set, the system named is HL-60. Briefly: Cytotoxicity against human HL60 cells assessed as cell viability up to 120 uM after 24 hrs by trypan blue assay. The format is cell-based. Conditions: hl-60, 24 h.
For the compound `Oc1ccc(O)cc1` [HYDROQUINONE], the Activity entry is “Toxic”. As for `O=c1[nH]c2ccc(O)nc2[nH]1`, the Activity result is listed as “Non-toxic”. Same read-out and setting: as for `O=c1[nH]c2ccc(O)cc2[nH]1`, the entry is “Non-toxic”; as for `O=c1[nH]c(=O)c2[nH]c(=O)[nH]c2[nH]1` [URIC ACID], “Non-toxic”; as for `Nc1ccc(O)cc1` [4-AMINOPHENOL], “Toxic”. Still for that read-out and setting: for `O=C1Cc2cc(O)ccc2N1` the value was “Non-toxic”.

The test system of the next data set is Radical scavenging activity. Briefly: Antioxidant activity assessed as DPPH radical scavenging activity at 500 uM measured for 60 secs by spectrophotometric analysis. The format is functional.
Conditions: not given
`O=C1Cc2ccccc2N1`: the outcome was inactive. The same measure, in the same setting: for `COc1ccc2[nH]c(=O)[nH]c2c1` the value was “inactive”; for `O=C1Cc2ccccc2C1`, “inactive”.

As for `O=c1[nH]c2ccccc2[nH]1`, the result was inactive. For the compound `Oc1ccc2c(c1)CCC2`, the result was inactive.

Take `COc1ccc2[nH]c(=O)[nH]c2n1`: the result was inactive. `c1ccc2[nH]cnc2c1`: the result was inactive.

The subject of another data set is Radical scavenging activity. Briefly: Antioxidant activity assessed as DPPH radical scavenging rate constant measured for 60 secs by spectrophotometric analysis.
Conditions: not given
In kind it is functional.
Consider `Oc1ccc(O)cc1` [HYDROQUINONE], for which the Activity came to 4.4 ×10³ /M/s.

In the case of `Oc1ccc2cc[nH]c2c1`, the Activity worked out at 11 ×10³ /M/s. The same measure, in the same setting: as for `O=c1[nH]c2ccc(O)nc2[nH]1`, the figure is 71 ×10³ /M/s; as for `Oc1cccc2c1CCN2`, 0.21 ×10³ /M/s; as for `O=c1[nH]c2ccc(O)cc2[nH]1`, 110 ×10³ /M/s.

`O=c1[nH]c2cccc(O)c2[nH]1`: the Activity stood at 0.37 ×10³ /M/s. Still for that read-out and setting: for `O=C1Cc2cccc(O)c2N1` the value was 0.12 ×10³ /M/s. As for `CC1=NN(c2ccccc2)C(=O)C1`, the Activity amounted to 72 ×10³ /M/s. Still for that read-out and setting: for `O=C1Cc2ccc(O)cc2N1` the value was 0.93 ×10³ /M/s; for `O=c1[nH]c2ccc(O)cc2o1`, 8.7 ×10³ /M/s; for `Nc1ccc(O)cc1` [4-AMINOPHENOL], 310 ×10³ /M/s.

Consider `Oc1ccc2[nH]ccc2c1`, for which the Activity was 2.6 ×10³ /M/s.

For `O=C1Cc2cc(O)ccc2N1`, the Activity came to 11 ×10³ /M/s. For the compound `[Na+].[O-]c1nc2c(O)nc(O)nc2[nH]1`, the Activity stood at 0.7 ×10³ /M/s.

Test system in a further data set: not listed separately
Briefly: Solubility of the compound in serum at pH 7.4.
Conditions: not given
In kind it is ADME.
The compound `[Na+].[O-]c1nc2c(O)nc(O)nc2[nH]1` displayed a solubility of 70 µg/mL.

(Values after ChEMBL document CHEMBL3217718, “Synthesis, radical scavenging activity and structureactivity relationship of uric acid analogs” (Medchemcomm, 2013).)
